Results on eleven molecules are retold here after PubChem BioAssay (NCI).

Among the test systems are NCI-H460 lung; IGROV1 ovarian; HCC-2998 colon; SN12C renal; SK-MEL-28 melanoma; 786-0 renal; NCI-H226 lung; SF-268 CNS; K-562 leukemia; OVCAR-8 ovarian; U251 CNS; SW-620 colon; MCF7 breast; MALME-3M melanoma.
Holding throughout (assay): NCI-60 cell line screen, 48 h

Values joined by “and” are separate entries in the source; they are usually repeats but may differ in a detail not shown here. Identical values can stand only once.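 Each compound was tested at five concentrations against cells in 96-well plates for 48 hours. At the GI50, growth is halved. The concentration for full growth arrest is given as TGI.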

For the molecule `O=C(CSc1nc2ccc(I)cc2c(=O)n1Cc1ccccc1)NN1C(=O)CSC1c1ccccc1` (centres undefined), the TGI in the assay on NCI-H460 lung was 36.3 µM; in the assay on IGROV1 ovarian, 55.6 µM; with HCC-2998 colon, 53.2 µM; in the assay on SN12C renal, 56.1 µM; in the assay on SK-MEL-28 melanoma, 95.9 µM; in the assay with 786-0 renal, above 100 µM. Further, the TGI is above 100 µM in the assay on NCI-H226 lung; 79.1 µM with SF-268 CNS; above 100 µM in the assay with K-562 leukemia; above 100 µM in the assay with OVCAR-8 ovarian; 69.5 µM in the assay with U251 CNS; above 100 µM in the assay with SW-620 colon. In the assay with MCF7 breast, the TGI came out at 42.1 µM.

Consider `CN(C(=O)c1cc2c(s1)sc1c(=O)n(C)c3ccccc3c12)c1ccccc1`, for which the TGI with NCI-H460 lung was 83.3 µM; in the assay with IGROV1 ovarian it was above 100 µM; with HCC-2998 colon, above 100 µM; in the assay on MALME-3M melanoma, above 100 µM; in the assay with SN12C renal it was above 100 µM; in the assay on SK-MEL-28 melanoma, above 100 µM. The TGI with 786-0 renal, with NCI-H226 lung, with K-562 leukemia, in the assay with OVCAR-8 ovarian, in the assay with U251 CNS and in the assay with MCF7 breast was above 100 µM throughout.

Turning to `CCOC(=O)C(C)c1nc2cc(C(F)(F)F)ccc2[nH]c1=O` (centres undefined), the TGI with NCI-H460 lung, with HCC-2998 colon, in the assay with MALME-3M melanoma, with SN12C renal, in the assay with SK-MEL-28 melanoma and in the assay on 786-0 renal was above 100 µM throughout. Moreover, the TGI with NCI-H226 lung, in the assay on SF-268 CNS, with K-562 leukemia, with OVCAR-8 ovarian, in the assay on U251 CNS and with SW-620 colon was above 100 µM each time. Also, the TGI in the assay on MCF7 breast was above 100 µM.

Turning to `CC(=O)c1c2c(cc3c1CC1(C3)Cc3cc4c(c(C(C)=O)c3C1)CCCC4)CCCC2`, the TGI with IGROV1 ovarian, with HCC-2998 colon, in the assay with MALME-3M melanoma, in the assay with SN12C renal, with 786-0 renal and in the assay on NCI-H226 lung was above 100 µM throughout. Moreover, the TGI in the assay with K-562 leukemia, with OVCAR-8 ovarian, in the assay on U251 CNS and with MCF7 breast was above 100 µM throughout.

Regarding `O=C(c1ccc(Cl)c(Cl)c1)N(C(=O)N1CCN(c2ccccc2)CC1)S(=O)(=O)c1ccccc1`, the TGI in the assay on NCI-H460 lung, in the assay with HCC-2998 colon, with MALME-3M melanoma, with SN12C renal, in the assay with SK-MEL-28 melanoma and in the assay on 786-0 renal was above 100 µM throughout. For the same molecule, the TGI is 87.9 µM in the assay with NCI-H226 lung; above 100 µM with SF-268 CNS; above 100 µM in the assay with K-562 leukemia; 83.5 µM in the assay on OVCAR-8 ovarian; 62.9 µM in the assay with U251 CNS; above 100 µM in the assay with SW-620 colon. The TGI in the assay with MCF7 breast is above 100 µM.

For the molecule `Cc1ccccc1C1CC(=O)CC(c2ccccc2C)C12C(=O)NC(=S)NC2=O` (centres undefined), the TGI was 41.8 µM in the assay with NCI-H460 lung; 25.2 µM with HCC-2998 colon; 78.4 µM in the assay on MALME-3M melanoma; 67 µM with SN12C renal; 44.5 µM in the assay with SK-MEL-28 melanoma; above 100 µM in the assay on 786-0 renal. The TGI was 44.2 µM in the assay on NCI-H226 lung; above 100 µM with SF-268 CNS; above 100 µM with K-562 leukemia; above 100 µM in the assay with U251 CNS; 90.4 µM with SW-620 colon; above 100 µM with MCF7 breast.

Regarding `COC(=O)/C=C1/OC(c2ccc(C)cc2C)=CC1=O`, the TGI in the assay with NCI-H460 lung came out at 36.5 µM; in the assay with IGROV1 ovarian it was 22 µM; with HCC-2998 colon, 30.5 µM; in the assay with MALME-3M melanoma it was 29.9 µM; with SK-MEL-28 melanoma, 36.3 µM; in the assay on 786-0 renal it was 24.2 µM. Moreover, the TGI was 48.9 µM with NCI-H226 lung; 48.9 µM with SF-268 CNS; 10.8 µM in the assay with K-562 leukemia; 37.4 µM with OVCAR-8 ovarian; 31.1 µM in the assay on U251 CNS; 10.4 µM in the assay on SW-620 colon. Further, the TGI in the assay on MCF7 breast came to 28.3 µM.

As to `CCOC(=O)CNC(=O)CNC(=O)CNC(=O)CNNc1c(OCc2ccccc2)c(=O)c1=O`, the TGI with IGROV1 ovarian, in the assay with HCC-2998 colon, in the assay with MALME-3M melanoma, in the assay with SN12C renal, with SK-MEL-28 melanoma and with 786-0 renal was above 100 µM each time. Also, the TGI in the assay with NCI-H226 lung, in the assay with SF-268 CNS, in the assay on K-562 leukemia, with OVCAR-8 ovarian, in the assay on U251 CNS and with SW-620 colon was above 100 µM throughout. The molecule further came in with a TGI with MCF7 breast above 100 µM.

For `CC(=O)c1sc2n(C)c(=O)c3ccccc3[n+]2c1C`, the TGI in the assay with NCI-H460 lung, with IGROV1 ovarian, in the assay on HCC-2998 colon, with SN12C renal, with SK-MEL-28 melanoma and with 786-0 renal was above 100 µM each time. In addition, the TGI in the assay with NCI-H226 lung, with SF-268 CNS, with K-562 leukemia, in the assay on OVCAR-8 ovarian, with U251 CNS and with SW-620 colon was above 100 µM each time. In the assay on MCF7 breast, this molecule came in with a TGI above 100 µM.

Take `C=CC[C@@]12CCC(=O)C=C1CCCC2=O`: the TGI in the assay on NCI-H460 lung, in the assay with IGROV1 ovarian, in the assay with HCC-2998 colon, with MALME-3M melanoma, with SN12C renal and in the assay on SK-MEL-28 melanoma was above 100 µM each time. The TGI in the assay on 786-0 renal, with NCI-H226 lung, in the assay on SF-268 CNS, with K-562 leukemia, with U251 CNS and in the assay on SW-620 colon was above 100 µM in each case. This molecule also registered a TGI in the assay with MCF7 breast above 100 µM.

Turning to `C=CCN1C(=O)/C(=C/c2ccc(OC)cc2)N=C1SC1OC(COC(C)=O)C(OC(C)=O)C(OC(C)=O)C1OC(C)=O` (centres undefined), the GI50 is 24.7 µM and 99.9 µM with NCI-H460 lung; 20.4 µM and 75.4 µM in the assay on IGROV1 ovarian; 24.6 µM and > 100 µM with SK-MEL-28 melanoma; 13.1 µM and 54.1 µM in the assay on OVCAR-8 ovarian; 14.8 µM and 99.1 µM with U251 CNS; 11.7 µM and > 100 µM with MCF7 breast. Also, the TGI in the assay on NCI-H460 lung was above 100 µM; in the assay with IGROV1 ovarian it was above 100 µM; in the assay with HCC-2998 colon, above 100 µM; in the assay on MALME-3M melanoma it was above 100 µM; with SN12C renal, 89.4 µM; with SK-MEL-28 melanoma it was above 100 µM. Also, the TGI in the assay with 786-0 renal is above 100 µM; with NCI-H226 lung, 55.5 µM and > 100 µM; in the assay with K-562 leukemia, above 100 µM; in the assay on OVCAR-8 ovarian, above 100 µM; in the assay with U251 CNS, 58.8 µM and > 100 µM; in the assay with SW-620 colon it was above 100 µM. Further, the TGI in the assay with MCF7 breast is above 100 µM.
